In brackets after ≈: the same amount, converted by molar mass. Read-outs that look alike come from different tables or passages of the source.
What was measured:
[1] = target: T1, E. coli DNA gyrase (Escherichia coli, UniProt P0AES6); experiment: biochemical; conditions: E. coli DNA gyrase; read-out: IC50
T1 construct: purchased Inspiralis
Method: Inhibitory activities for compounds of the present invention were determined on E. coli and S. aureus DNA gyrase and topoisomerase IV in an assay from Inspiralis on streptavidin-coated 96-well microtiter plates from Thermo scientific Pierce. […] After washing off the unbound oligonucleotide, the enzyme test was performed. […] Reaction solutions were incubated at 37° C. for 30 min. After that, the TF buffer (50 mM NaOAc with pH 5.0, 50 mM NaCl and 50 mM MgCl2) was added to terminate the enzymatic reaction. After additional incubation for 30 min at rt, during which biotin-oligonucleotide-plasmid triplex was formed, the unbound plasmid was washed off using TF buffer and SybrGOLD in T10 buffer (10 mM Tris HCl with pH 8.0 and 1 mM EDTA) was added. […] GraphPad Prism 6.0 software was used to calculate the IC50 values. The result is given as the average value of three independent measurements. […] Chemoth.

[2] = tested on: S. aureus ATCC 29213; experiment: Microbroth dilution MIC (CLSI); format: cell-based; conditions: Staphylococcus aureus, ATCC29213; S. aureus ATCC 29213; read-out: MIC
Method: (§1) The chemical entities described in the present invention were assessed for their antimicrobial activity using a microbroth dilution assay as recommended by the CLSI (Methods for Dilution Antimicrobial Susceptibility Tests for Bacteria That Grow Aerobically, and Methods for Antimicrobial Susceptibility Testing of Anaerobic Bacteria, Clinical and Laboratory Standards Institute, Document M07-A8, and M11-A8, Wayne, PA 19087, USA, 2012.). Compounds were dissolved by using 100% DMSO. Serial two-fold dilutions of each compound were made by using 100% DMSO as the diluent.
(§2) A library of Gram-negative and Gram-positive microbes and their drug- and multidrug-resistant variants were employed as test organisms. The MIC (minimum inhibitory concentration) was determined as the lowest concentration of an individual drug that lead to no visible growth.

[3] = tested on: P. aeruginosa ATCC 27853; experiment: Microbroth dilution MIC (CLSI); format: cell-based; conditions: Pseudomonas aeruginosa, ATCC27853; P. aeruginosa ATCC 27853; read-out: MIC
Method: as §1, §2

[4] = tested on: S. aureus ATCC 700699 (VISA); experiment: Microbroth dilution MIC (CLSI); format: cell-based; conditions: Staphylococcus aureus
Method: as §1, §2

[5] = tested on: K. pneumoniae ATCC 10031; experiment: Microbroth dilution MIC (CLSI); format: cell-based; conditions: Klebsiella pneumoniae, ATCC10031; K. pneumoniae ATCC 10031; read-out: MIC
Method: as §1, §2

[6] = tested on: A. baumannii ATCC 17978; experiment: Microbroth dilution MIC (CLSI); format: cell-based; conditions: Acinetobacter baumannii, ATCC17978; A. baumannii ATCC 17978; read-out: MIC
Method: as §1, §2

[7] = tested on: E. faecalis ATCC 29212; experiment: Microbroth dilution MIC (CLSI); format: cell-based; conditions: Enterococcus faecalis, ATCC29212; E. faecalis ATCC 29212; read-out: MIC
Method: as §1, §2

[8] = tested on: E. spp. cloacae ATCC 13047; experiment: Microbroth dilution MIC (CLSI); format: cell-based; conditions: Enterobacter cloacae, ATCC13047; E. spp. cloacae ATCC 13047; read-out: MIC
Method: as §1, §2

[9] = tested on: E. coli ATCC 25922; experiment: Microbroth dilution MIC (CLSI); format: cell-based; conditions: Escherichia coli, ATCC25922; E. coli ATCC 25922; read-out: MIC
Method: as §1, §2

[10] = tested on: E. faecium ATCC 700221; experiment: Microbroth dilution MIC (CLSI); format: cell-based; conditions: Enterococcus faecium, ATCC700221
Method: as §1, §2

[11] = tested on: S. aureus ATCC 43300 (MRSA); experiment: Microbroth dilution MIC (CLSI); format: cell-based; conditions: Staphylococcus aureus
Method: as §1, §2

[12] = target: T2, E. coli topoisomerase IV (Escherichia coli, UniProt P20083); experiment: biochemical; conditions: E. coli topo IV, read-out: RA (residual activity of the enzyme); for remaining activity at 1 µM: 1 μM compound; for remaining activity at 10 µM: 10 μM compound
T2 construct: purchased Inspiralis
T2 sequence (P0AFI2 whole entry): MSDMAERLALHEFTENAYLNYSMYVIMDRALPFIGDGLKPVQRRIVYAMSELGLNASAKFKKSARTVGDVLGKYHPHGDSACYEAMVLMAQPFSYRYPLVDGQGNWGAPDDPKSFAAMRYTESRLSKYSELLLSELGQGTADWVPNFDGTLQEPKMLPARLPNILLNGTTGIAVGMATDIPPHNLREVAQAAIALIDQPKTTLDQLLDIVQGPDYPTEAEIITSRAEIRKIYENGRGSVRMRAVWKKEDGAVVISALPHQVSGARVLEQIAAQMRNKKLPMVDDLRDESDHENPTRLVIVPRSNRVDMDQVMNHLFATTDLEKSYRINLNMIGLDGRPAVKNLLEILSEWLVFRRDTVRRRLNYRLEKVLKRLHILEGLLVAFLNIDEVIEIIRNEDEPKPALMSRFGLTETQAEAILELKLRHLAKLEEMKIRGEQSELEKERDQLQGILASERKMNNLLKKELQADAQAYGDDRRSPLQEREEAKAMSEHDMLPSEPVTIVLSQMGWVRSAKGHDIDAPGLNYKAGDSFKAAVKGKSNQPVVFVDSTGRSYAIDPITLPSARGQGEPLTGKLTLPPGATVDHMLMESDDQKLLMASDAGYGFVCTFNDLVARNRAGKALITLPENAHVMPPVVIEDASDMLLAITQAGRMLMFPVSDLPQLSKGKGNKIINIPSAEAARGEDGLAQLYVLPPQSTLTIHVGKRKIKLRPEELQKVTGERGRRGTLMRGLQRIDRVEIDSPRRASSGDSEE
T2 sequence (P20083 whole entry): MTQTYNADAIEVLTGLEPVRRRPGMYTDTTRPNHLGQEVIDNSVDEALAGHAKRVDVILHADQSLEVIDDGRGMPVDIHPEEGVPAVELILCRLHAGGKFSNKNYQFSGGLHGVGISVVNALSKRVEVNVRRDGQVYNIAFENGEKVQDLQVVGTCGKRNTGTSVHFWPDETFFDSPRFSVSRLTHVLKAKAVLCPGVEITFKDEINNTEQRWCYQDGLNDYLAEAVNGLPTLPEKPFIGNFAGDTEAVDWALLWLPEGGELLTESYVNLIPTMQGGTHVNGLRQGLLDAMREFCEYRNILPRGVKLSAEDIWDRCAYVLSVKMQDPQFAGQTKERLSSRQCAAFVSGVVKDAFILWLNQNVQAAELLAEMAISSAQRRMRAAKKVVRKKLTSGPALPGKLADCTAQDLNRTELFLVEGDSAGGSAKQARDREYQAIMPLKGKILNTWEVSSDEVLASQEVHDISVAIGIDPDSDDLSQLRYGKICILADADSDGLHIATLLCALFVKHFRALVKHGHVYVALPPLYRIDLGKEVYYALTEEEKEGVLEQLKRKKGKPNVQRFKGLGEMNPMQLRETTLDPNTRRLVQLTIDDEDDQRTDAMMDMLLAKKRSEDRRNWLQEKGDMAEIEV
Method: Inhibitory activities for compounds of the present invention were determined on E. coli and S. aureus DNA gyrase and topoisomerase IV in an assay from Inspiralis on streptavidin-coated 96-well microtiter plates from Thermo scientific Pierce. […] After washing off the unbound oligonucleotide, the enzyme test was performed. […] Reaction solutions were incubated at 37° C. for 30 min. After that, the TF buffer (50 mM NaOAc with pH 5.0, 50 mM NaCl and 50 mM MgCl2) was added to terminate the enzymatic reaction. After additional incubation for 30 min at rt, during which biotin-oligonucleotide-plasmid triplex was formed, the unbound plasmid was washed off using TF buffer and SybrGOLD in T10 buffer (10 mM Tris HCl with pH 8.0 and 1 mM EDTA) was added. […] Initial screening was done at 100 or 10 nM concentration of inhibitors against E. coli DNA gyrase or 1 μM or 100 nM concentration against S. aureus DNA gyrase and E. coli and S. aureus topo IV. […] GraphPad Prism 6.0 software was used to calculate the IC50 values. The result is given as the average value of three independent measurements. […] Chemoth.

[13] = S. aureus ATCC 700699 (VISA), read-out: MIC
[14] = E. faecium ATCC 700221, read-out: MIC
[15] = S. aureus ATCC 43300 (MRSA), read-out: MIC

Row | Compound | IC50 [1] | MIC [2] | MIC [3] | MIC [4] | MIC [5] | MIC [6] | MIC [7] | MIC [8] | MIC [9] | MIC [10] | MIC [11] | MIC [4, 13] | MIC [10, 14] | MIC [11, 15] | remaining activity at 1 µM [12] | remaining activity at 10 µM [12]
1 | Cc1[nH]c(C(=O)Nc2ccc(-c3noc(=O)[nH]3)cc2N2CCNCC2)c(Cl)c1Cl [Example 5, 4-(2-(3,4-Dichloro-5-methyl-1H-pyrrole-2-carboxamido)-5-(5-oxo-4,5-dihydro-1,2,4-oxadiazol-3-yl)phenyl)piperazin-1-ium chloride] | 6.07 nM | > 64 µg/mL | > 64 µg/mL | > 64 µg/mL | > 64 µg/mL | > 64 µg/mL | > 64 µg/mL | > 64 µg/mL | > 64 µg/mL | > 64 µg/mL | > 64 µg/mL |  |  |  |  | 
2 | Cc1[nH]c(C(=O)Nc2ccc(C(=O)O)cc2NC2CCNCC2)c(Cl)c1Cl.Cl [Example 15, 4-((5-Carboxy-2-(3,4-dichloro-5-methyl-1H-pyrrole-2-carboxamido)phenyl)amino)piperidin-1-ium chloride] | 532 nM | > 64 µg/mL | > 64 µg/mL |  | > 64 µg/mL | > 64 µg/mL | > 64 µg/mL | > 64 µg/mL | > 64 µg/mL |  |  | > 64 µg/mL | > 64 µg/mL | > 64 µg/mL |  | 
3 | Cc1[nH]c(C(=O)Nc2ccc(-c3noc(=O)[nH]3)cc2N2CCCC2)c(Cl)c1Cl [Example 6, 3,4-Dichloro-5-methyl-N-(4-(5-oxo-4,5-dihydro-1,2,4-oxadiazol-3-yl)-2-(pyrrolidin-1-yl)phenyl)-1H-pyrrole-2-carboxamide] | 12.6 nM | > 64 µg/mL | > 64 µg/mL |  | > 64 µg/mL | > 64 µg/mL | < 0.0312 µg/mL | > 64 µg/mL | > 64 µg/mL |  |  | < 0.0313 µg/mL | 0.0625 µg/mL (≈ 0.148 µM) | 0.5 µg/mL (≈ 1.18 µM) |  | 
4 | Cc1[nH]c(C(=O)Nc2ccc(C(=O)NS(C)(=O)=O)cc2N2CCOCC2)c(Cl)c1Cl [Example 45, 3,4-Dichloro-5-methyl-N-(4-((methylsulfonyl)carbamoyl)-2-morpholinophenyl)-1H-pyrrole-2-carboxamide] | 243 nM |  |  |  |  |  |  |  |  |  |  |  |  |  |  | 
5 | Cc1[nH]c(C(=O)Nc2ccc(-c3n[nH]c(=O)o3)cc2OC2CCNCC2)c(Cl)c1Cl.Cl [Example 27, 4-(2-(3,4-Dichloro-5-methyl-1H-pyrrole-2-carboxamido)-5-(5-oxo-4,5-dihydro-1,3,4-oxadiazol-2-yl)phenoxy)piperidin-1-ium chloride] | 2.26 nM | 16 µg/mL | ≥ 32 µg/mL |  | 0.125 µg/mL | ≥ 32 µg/mL | > 64 µg/mL | ≥ 32 µg/mL | ≥ 32 µg/mL |  |  | ≥ 64 µg/mL | 8 µg/mL | 8 µg/mL |  | 
6 | Cc1[nH]c(C(=O)Nc2ccc(-c3n[nH]c(=O)o3)cc2N2CCOC(C)C2)c(Cl)c1Cl (centres unmarked) [Example 43, 3,4-Dichloro-5-methyl-N-(2-(2-methylmorpholino)-4-(5-oxo-4,5-dihydro-1,3,4-oxadiazol-2-yl)phenyl)-1H-pyrrole-2-carboxamide] | 53.5 nM | ≥ 64 µg/mL | ≥ 64 µg/mL |  | ≥ 64 µg/mL | ≥ 64 µg/mL | 1 µg/mL (≈ 2.21 µM) | ≥ 64 µg/mL | ≥ 64 µg/mL |  |  |  |  | ≥ 64 µg/mL | 103% | 102%
7 | Cc1[nH]c(C(=O)Nc2ccc(-c3n[nH]c(=O)o3)cc2N2CCOCC2)c(Cl)c1Cl [Example 42, 3,4-Dichloro-5-methyl-N-(2-morpholino-4-(5-oxo-4,5-dihydro-1,3,4-oxadiazol-2-yl)phenyl)-1H-pyrrole-2-carboxamide] | 82.2 nM | 0.25 µg/mL (≈ 0.57 µM) | ≥ 64 µg/mL |  | ≥ 64 µg/mL | ≥ 64 µg/mL | 0.125 µg/mL (≈ 0.285 µM) | ≥ 64 µg/mL | ≥ 64 µg/mL |  |  |  |  | 0.25 µg/mL (≈ 0.57 µM) | 66% | 54%
8 | Cc1[nH]c(C(=O)Nc2ccc(-c3n[nH]c(=O)o3)cc2N2CCNCC2)c(Cl)c1Cl.Cl [Example 41, 4-(2-(3,4-Dichloro-5-methyl-1H-pyrrole-2-carboxamido)-5-(5-oxo-4,5-dihydro-1,3,4-oxadiazol-2-yl)phenyl)piperazin-1-ium chloride] | 17.9 nM | 2 µg/mL | ≥ 64 µg/mL |  | 0.25 µg/mL | ≥ 64 µg/mL | 0.5 µg/mL | ≥ 64 µg/mL | ≥ 64 µg/mL |  |  |  |  | 4 µg/mL | 71% | 48%
9 | Cc1[nH]c(C(=O)Nc2ccc(-c3n[nH]c(=O)o3)cc2OCc2ccncc2)c(Cl)c1Cl [Example 30, 3,4-Dichloro-5-methyl-N-(4-(5-oxo-4,5-dihydro-1,3,4-oxadiazol-2-yl)-2-(pyridin-4-ylmethoxy)phenyl)-1H-pyrrole-2-carboxamide] | 42.2 nM |  |  |  |  |  |  |  |  |  |  |  |  |  |  | 
10 | Cc1[nH]c(C(=O)Nc2ccc(-c3n[nH]c(=O)o3)cc2N2CC(C)OC(C)C2)c(Cl)c1Cl (centres unmarked) [Example 44, 3,4-dichloro-N-(2-(2,6-dimethylmorpholino)-4-(5-oxo-4,5-dihydro-1,3,4-oxadiazol-2-yl)phenyl)-5-methyl-1H-pyrrole-2-carboxamide] | 109 nM |  |  |  |  |  |  |  |  |  |  |  |  |  | 105% | 105%
11 | Cc1[nH]c(C(=O)Nc2ccc(-c3n[nH]c(=O)o3)cc2OCc2cccs2)c(Cl)c1Cl [Example 33, 3,4-Dichloro-5-methyl-N-(4-(5-oxo-4,5-dihydro-1,3,4-oxadiazol-2-yl)-2-(thiophen-2-ylmethoxy)phenyl)-1H-pyrrole-2-carboxamide] | 3740 nM |  |  |  |  |  |  |  |  |  |  |  |  |  |  | 

Reference: US20250002455A1, “NEW N-PHENYLPYRROLAMIDE INHIBITORS OF DNA GYRASE AND TOPOISOMERASE IV WITH ANTIBACTERIAL ACTIVITY” (priority 2020, published 2025)
